Molecular target: α-glucosidase (Saccharomyces cerevisiae, UniProt P53341)
Assay: α-Glucosidase inhibitory assay
Assay type: biochemical
Conditions: for IC50: 4-nitrophenyl-α-D-glucopyranoside substrate, 37°C, 30 min, absorbance 405 nm, read-out: IC50 (μM), α-glucosidase inhibitory activities; for inhibitory activities against α-glucosidase (in words): conclusion statement
Protocol: IC50 values were calculated from the graph of inhibition percentage against the logarithm of the concentrations of compounds.

Chain of α-glucosidase (P53341 whole entry): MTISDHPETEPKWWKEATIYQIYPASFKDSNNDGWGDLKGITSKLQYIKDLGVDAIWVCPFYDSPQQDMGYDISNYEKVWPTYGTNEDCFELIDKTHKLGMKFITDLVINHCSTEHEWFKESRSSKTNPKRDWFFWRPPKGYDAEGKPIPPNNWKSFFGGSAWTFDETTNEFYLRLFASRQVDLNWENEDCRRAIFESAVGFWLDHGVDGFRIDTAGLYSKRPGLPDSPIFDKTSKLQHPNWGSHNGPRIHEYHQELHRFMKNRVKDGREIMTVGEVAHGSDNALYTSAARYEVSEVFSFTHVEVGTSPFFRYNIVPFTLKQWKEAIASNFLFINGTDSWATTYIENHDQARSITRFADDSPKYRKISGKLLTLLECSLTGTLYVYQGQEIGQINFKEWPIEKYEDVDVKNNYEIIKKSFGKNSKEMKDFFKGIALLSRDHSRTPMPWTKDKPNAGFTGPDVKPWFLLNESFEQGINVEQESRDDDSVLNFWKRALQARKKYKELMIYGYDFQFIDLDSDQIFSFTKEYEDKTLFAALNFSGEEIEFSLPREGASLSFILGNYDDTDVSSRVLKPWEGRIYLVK

COc1cc(O[C@@H]2O[C@H](CO)[C@@H](O)[C@H](O)[C@H]2O)c2c(O)c3c(=O)cc(C)oc3cc2c1 [Compound 11, rubrofusarin-6-O-β-D-glucopyranoside]
IC50: 28 µM
inhibitory activities against α-glucosidase (in words): moderate inhibitory activities

COc1cc(O[C@@H]2O[C@H](CO[C@@H]3O[C@@H](C)[C@H](O)[C@@H](O)[C@H]3O)[C@@H](O)[C@H](O)[C@H]2O)c2c(O)c3c(=O)cc(C)oc3cc2c1 [Compound 12, rubrofusarin-6-O-α-L-rhamnosyl-(1→6)-O-β-D-glucopyranside]
IC50: > 50 µM

O=c1c(O)c(-c2ccc(O)c(O)c2)oc2cc(O)cc(O)c12 [Compound 14, quercetin]
inhibitory activities against α-glucosidase (in words): moderate inhibitory activities

O=c1c(O)c(-c2ccc(O)cc2)oc2cc(O)cc(O)c12 [Compound 15, kaempferol]
inhibitory activities against α-glucosidase (in words): moderate inhibitory activities

O=C1c2c(O)cc(O)cc2O[C@H](c2ccc(O)cc2)[C@H]1O [Compound 17, dihydrokaempferol]
inhibitory activities against α-glucosidase (in words): moderate inhibitory activities

COc1c(O)c(O)cc2c1C(=O)c1c(O)cc(C)cc1C2=O [Compound 18, 2-hydroxyemodin 1-methyl ether]
IC50: > 50 µM

demethylflavasperone-10-O-β-D-glucopyranoside [Compound 10]
IC50: > 50 µM

vittarin-B [Compound 9]
IC50: 22.5 µM
inhibitory activities against α-glucosidase (in words): moderate inhibitory activities

From article PMC9047694, “Phenolic Compounds From the Stems and Leaves of Berchemia lineata (L.) DC” (Frontiers in Chemistry, 2022)
